Type in all cases: cell-based
Assay [1] has as its system SDMA (PRMT5 activity) in HAP1 MTAP-deleted cell line. Briefly: SDMA in-cell western assay, HAP1 MTAP-deleted. Particulars: for IC50 / IC90: Homo sapiens, SDMA in-cell western, HAP1 MTAP-deleted cells, 24 hours compound incubation; for Hap1 MTAP intact/deleted ratio: ratio of SDMA IC50 in HAP1 MTAP-intact to HAP1 MTAP-deleted cell line.
The test system of assay [2] is HAP1 MTAP-deleted cell line. Briefly: Viability assay (CellTiter-Glo), HAP1 MTAP-deleted. Particulars: Homo sapiens, 168 h, HAP1 MTAP-deleted cells, 7 days. Put shortly: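 HAP1 MTAP-deleted and MTAP-intact cells seeded, then dosed next day (n=3, 0.2% DMSO) and grown 7 days. Viability by CellTiter-Glo luminescence, expressed as % of DMSO control per cell line.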
The subject of assay [3] is SDMA (PRMT5 activity) in HAP1 MTAP-intact cell line. Briefly: SDMA in-cell western assay, HAP1 MTAP-intact. The conditions noted are these: Homo sapiens, SDMA in-cell western, HAP1 MTAP-intact cells, 24 hours compound incubation.

Consider 18 molecules from patent US20250171432A1, “COMPOUNDS AND METHODS OF USE” (Tango Therapeutics, Inc., priority 2022, published 2025).

On to `COc1ncc(NC(=O)C(=O)N2CCCC[C@@H]2c2ccc3sc(C4CCN(C)CC4)nc3c2)cc1C(N)=O` [Compound 29, 2-methoxy-5-(2-(2-(2-(1-methylpiperidin-4-yl)benzo[d]thiazol-5-yl)piperidin-1-yl)-2-oxoacetamido)nicotinamide], for which, in assay [1], the IC50 (in general, the concentration needed to halve the response being measured) fell in the range of 5 to 50 nM; the IC90 (in general, the concentration at which the effect reaches the 90% level) was above 125 nM; the “Hap1 MTAP intact/deleted ratio” value is “A (“A” indicates an IC50 ratio greater than or equal to 30 fold)”. The molecule further returned an IC50 in assay [2] of 100 to 1000 nM. The molecule further registered an IC50 in assay [3] (HAP1, 24 h) above 50 nM.

Turning to `COc1ncc(NC(=O)C(=O)N2C[C@@H](C)CC[C@@H]2c2ccc3sc(C45CCC(CC4)N(C)C5)nc3c2)cc1C(N)=O` [Compound 99, 2-methoxy-5-(2-((2R,5S)-5-methyl-2-(2-(2-methyl-2-azabicyclo[2.2.2]octan-4-yl)benzo[d]thiazol-5-yl)piperidin-1-yl)-2-oxoacetamido)nicotinamide], the 50% inhibitory concentration (IC50) was below 5 nM in assay [1]; below 100 nM in assay [2]; above 50 nM in assay [3] (HAP1, 24 h). In assay [1], this molecule had an IC90 below 75 nM. Further, the “Hap1 MTAP intact/deleted ratio” value in assay [1] is given as “A (“A” indicates an IC50 ratio greater than or equal to 30 fold)”.

With `COc1ncc(NC(=O)C(=O)N2C[C@@H](C)CC[C@@H]2c2ccc3sc(C4CN(C)C(C)(C)C4)nc3c2)cc1C(N)=O` (mixture of isomers) [Compound 77, 2-methoxy-5-(2-((2R,5S)-5-methyl-2-(2-(1,5,5-trimethylpyrrolidin-3-yl)benzo[d]thiazol-5-yl)piperidin-1-yl)-2-oxoacetamido)nicotinamide], in assay [1], the IC50 is below 5 nM, the IC90 is below 75 nM and the “Hap1 MTAP intact/deleted ratio” value is “A (“A” indicates an IC50 ratio greater than or equal to 30 fold)”. The molecule further displayed an IC50 in assay [2] below 100 nM. Further, in assay [3] (HAP1, 24 h), the IC50 is above 50 nM.

Consider `CCc1cc(NC(=O)C(=O)N2C[C@@H](C)CC[C@@H]2c2ccc3sc([C@@H]4C[C@@H](C)CN(C)C4)nc3c2)cnc1N` (racemic) [Compound 118, N-(6-amino-5-ethylpyridin-3-yl)-2-((2R,5S)-2-(2-(1,5-dimethylpiperidin-3-yl)benzo[d]thiazol-5-yl)-5-methylpiperidin-1-yl)-2-oxoacetamide], for which, in assay [1], the IC50 was below 5 nM, the IC90 was below 75 nM and the “Hap1 MTAP intact/deleted ratio” value is recorded as “C (“C” indicates an IC50 ratio of less than 15 fold)”. This molecule also returned an IC50 in assay [2] below 100 nM. The IC50 in assay [3] (HAP1, 24 h) lay in the range of 5 to 50 nM.

As for `CCc1cc(NC(=O)C(=O)N2C[C@@H](C)CC[C@@H]2c2ccc3sc([C@@H]4CN(C)C(C)(C)C4)nc3c2)cnc1N` (single isomer, unassigned) [Compound 56], in assay [1], the IC50 is below 5 nM, the IC90 was below 75 nM and the “Hap1 MTAP intact/deleted ratio” value is listed as “B (“B” indicates an IC50 ratio greater than or equal to 15 fold but lower than 30 fold)”. Besides, the IC50 in assay [2] is below 100 nM. Further, the IC50 in assay [3] (HAP1, 24 h) is 5 to 50 nM.

In the case of `CCc1cc(NC(=O)C(=O)N2C[C@@H](C)CC[C@@H]2c2ccc3sc([C@H]4CN(C)C(C)(C)C4)nc3c2)cnc1N` (single isomer, unassigned) [Compound 27], in assay [1], the IC50 is below 5 nM, the concentration for an effect of 90% (IC90) was below 75 nM and the “Hap1 MTAP intact/deleted ratio” value was “B (“B” indicates an IC50 ratio greater than or equal to 15 fold but lower than 30 fold)”. The molecule further yielded an IC50 in assay [2] below 100 nM. For the same molecule, the IC50 in assay [3] (HAP1, 24 h) was 5 to 50 nM.

`CCc1cc(NC(=O)C(=O)N2C[C@@H](C)CC[C@@H]2c2ccc3cn(C4CCN(C)C(C)(C)C4)nc3c2)cnc1N` (single isomer, unassigned) [Compound 48]: the IC50 in assay [1] is below 5 nM; in assay [2] it was below 100 nM; in assay [3] (HAP1, 24 h), 5 to 50 nM. Besides, in assay [1], the 90% effect concentration (IC90) was below 75 nM. Besides, in assay [1], the “Hap1 MTAP intact/deleted ratio” value was “C (“C” indicates an IC50 ratio of less than 15 fold)”.

Consider `CCc1cc(NC(=O)C(=O)N2C[C@@H](C)CC[C@@H]2c2ccc3sc(CC4(C)CCN(C)CC4)nc3c2)cnc1N` [Compound 6, N-(6-amino-5-ethylpyridin-3-yl)-2-((2R,5S)-2-(2-((1,4-dimethylpiperidin-4-yl)methyl)benzo[d]thiazol-5-yl)-5-methylpiperidin-1-yl)-2-oxoacetamide], for which the IC50 in assay [1] was below 5 nM; in assay [2], below 100 nM; in assay [3] (HAP1, 24 h) it was 5 to 50 nM. Besides, the IC90 in assay [1] was below 75 nM. Further, the “Hap1 MTAP intact/deleted ratio” value in assay [1] is “B (“B” indicates an IC50 ratio greater than or equal to 15 fold but lower than 30 fold)”.

With `COc1ncc(NC(=O)C(=O)N2C[C@@H](C)CC[C@@H]2c2ccc3ccc(C4CCN(C)CC4)nc3c2)cc1C(N)=O` [Compound 88, 2-methoxy-5-(2-((2R,5S)-5-methyl-2-(2-(1-methylpiperidin-4-yl)quinolin-7-yl)piperidin-1-yl)-2-oxoacetamido)nicotinamide], in assay [1], the IC50 was below 5 nM, the IC90 was below 75 nM and the “Hap1 MTAP intact/deleted ratio” value is reported as “A (“A” indicates an IC50 ratio greater than or equal to 30 fold)”. This molecule had an IC50 in assay [2] below 100 nM. In addition, the IC50 in assay [3] (HAP1, 24 h) was above 50 nM.

As for `CCc1cc(NC(=O)C(=O)N2C[C@@H](C)CC[C@@H]2c2ccc3sc([C@@H]4C[C@@H]5CC(F)(F)C[C@H](C4)N5C)nc3c2)cnc1N` [Compound 91, N-(6-amino-5-ethylpyridin-3-yl)-2-((2R,5S)-2-(2-(7,7-difluoro-9-methyl-9-azabicyclo[3.3.1]nonan-3-yl)benzo[d]thiazol-5-yl)-5-methylpiperidin-1-yl)-2-oxoacetamide], the IC50 in assay [1] was below 5 nM; in assay [2], below 100 nM; in assay [3], above 50 nM. Also, the IC90 in assay [1] is below 75 nM. Moreover, in assay [1], the “Hap1 MTAP intact/deleted ratio” value was “A (“A” indicates an IC50 ratio greater than or equal to 30 fold)”.

For `COc1ncc(NC(=O)C(=O)N2C[C@@H](C)CC[C@@H]2c2ccc3sc([C@H]4CN(C)CCO4)nc3c2)cc1C(N)=O` [Compound 124], in assay [1], the IC50 was 5 to 50 nM, the IC90 is above 125 nM and the “Hap1 MTAP intact/deleted ratio” value is “A (“A” indicates an IC50 ratio greater than or equal to 30 fold)”. This molecule registered an IC50 in assay [2] of 100 to 1000 nM. Also, in assay [3] (HAP1, 24 h), the IC50 was above 50 nM.

Regarding `COc1ncc(NC(=O)C(=O)N2C[C@@H](C)CC[C@@H]2c2ccc3sc([C@H]4C[C@H](N(C)C)C4)nc3c2)cc1C(N)=O` (single isomer, unassigned) [Compound 50], in assay [1], the IC50 was below 5 nM, the IC90 is below 75 nM and the “Hap1 MTAP intact/deleted ratio” value is “A (“A” indicates an IC50 ratio greater than or equal to 30 fold)”. Also, in assay [2], the IC50 is below 100 nM. This molecule also registered an IC50 in assay [3] (HAP1, 24 h) above 50 nM.

`CCc1cc(NC(=O)C(=O)N2C[C@@H](C)CC[C@@H]2c2ccc3oc(C4CCN(C)CC4)nc3c2)cnc1N` [Compound 53, N-(6-amino-5-ethylpyridin-3-yl)-2-((2R,5S)-5-methyl-2-(2-(1-methylpiperidin-4-yl)benzo[d]oxazol-5-yl)piperidin-1-yl)-2-oxoacetamide]: in assay [1], the 50% inhibitory concentration (IC50) was below 5 nM, the IC90 was below 75 nM and the “Hap1 MTAP intact/deleted ratio” value is given as “A (“A” indicates an IC50 ratio greater than or equal to 30 fold)”. Besides, the IC50 in assay [2] was below 100 nM. In assay [3], this molecule registered an IC50 above 50 nM.

For `C[C@H]1CC[C@H](c2ccc3scnc3c2)N(C(=O)C(=O)Nc2cnc(N)c(I)c2)C1` [Compound 51, N-(6-amino-5-iodopyridin-3-yl)-2-((2R,5S)-2-(benzo[d]thiazol-5-yl)-5-methylpiperidin-1-yl)-2-oxoacetamide], in assay [1], the IC50 was below 5 nM, the IC90 lay in the range of 75 to 125 nM and the “Hap1 MTAP intact/deleted ratio” value is given as “A (“A” indicates an IC50 ratio greater than or equal to 30 fold)”. Besides, the concentration for half-maximal inhibition (IC50) in assay [2] fell in the range of 100 to 1000 nM. The IC50 in assay [3] was above 50 nM.

In the case of `CCc1cc(NC(=O)C(=O)N2C[C@@H](C)CC[C@@H]2c2ccc3sc([C@@H]4C[C@@H]5CN(C)C[C@@H]5C4)nc3c2)cnc1N` (single isomer, unassigned) [Compound 111], the IC50 is below 5 nM in assay [1]; below 100 nM in assay [2]; above 50 nM in assay [3] (HAP1, 24 h). In assay [1], the concentration for an effect of 90% (IC90) was below 75 nM. For the same molecule, the “Hap1 MTAP intact/deleted ratio” value in assay [1] is on record as “B (“B” indicates an IC50 ratio greater than or equal to 15 fold but lower than 30 fold)”.

Take `COc1ncc(NC(=O)C(=O)N2C[C@@H](C)CC[C@@H]2c2ccc3ccc(N4CCN(C)CC4)nc3c2)cc1C(N)=O` [Compound 126, 2-methoxy-5-(2-((2R,5S)-5-methyl-2-(2-(4-methylpiperazin-1-yl)quinolin-7-yl)piperidin-1-yl)-2-oxoacetamido)nicotinamide]: in assay [1], the IC50 is below 5 nM, the IC90 is below 75 nM and the “Hap1 MTAP intact/deleted ratio” value is listed as “A (“A” indicates an IC50 ratio greater than or equal to 30 fold)”. The IC50 in assay [2] is below 100 nM. In assay [3] (HAP1, 24 h), this molecule showed an IC50 above 50 nM.

For the molecule `CCc1cc(NC(=O)C(=O)N2C[C@@H](C)CC[C@@H]2c2cccc(N3CCC(N(C)C)CC3)c2)cnc1N` [Compound 9, N-(6-amino-5-ethylpyridin-3-yl)-2-((2R,5S)-2-(3-(4-(dimethylamino)piperidin-1-yl)phenyl)-5-methylpiperidin-1-yl)-2-oxoacetamide], in assay [1], the IC50 was below 5 nM, the IC90 is below 75 nM and the “Hap1 MTAP intact/deleted ratio” value is given as “A (“A” indicates an IC50 ratio greater than or equal to 30 fold)”. Moreover, in assay [2], the IC50 was below 100 nM. For the same molecule, in assay [3] (HAP1, 24 h), the IC50 is above 50 nM.

With `CCc1cc(NC(=O)C(=O)N2C[C@@H](C)CC[C@@H]2c2ccc3sc([C@H]4C[C@H](N(C)C)C4)nc3c2)cnc1N` (single isomer, unassigned) [Compound 43], in assay [1], the IC50 is below 5 nM, the IC90 was below 75 nM and the “Hap1 MTAP intact/deleted ratio” value was “A (“A” indicates an IC50 ratio greater than or equal to 30 fold)”. Further, the IC50 in assay [2] is below 100 nM. Also, the half-maximal inhibitory concentration (IC50) in assay [3] (HAP1, 24 h) is above 50 nM.
